Results on four molecules are retold here after article PMC4255142 (Bioorganic & medicinal chemistry letters, 2014).

In experiment [1] the target is T1, holocarboxylase synthetase (HLCS) (Homo sapiens, UniProt P50747).
T1 sequence (P50747 1-726): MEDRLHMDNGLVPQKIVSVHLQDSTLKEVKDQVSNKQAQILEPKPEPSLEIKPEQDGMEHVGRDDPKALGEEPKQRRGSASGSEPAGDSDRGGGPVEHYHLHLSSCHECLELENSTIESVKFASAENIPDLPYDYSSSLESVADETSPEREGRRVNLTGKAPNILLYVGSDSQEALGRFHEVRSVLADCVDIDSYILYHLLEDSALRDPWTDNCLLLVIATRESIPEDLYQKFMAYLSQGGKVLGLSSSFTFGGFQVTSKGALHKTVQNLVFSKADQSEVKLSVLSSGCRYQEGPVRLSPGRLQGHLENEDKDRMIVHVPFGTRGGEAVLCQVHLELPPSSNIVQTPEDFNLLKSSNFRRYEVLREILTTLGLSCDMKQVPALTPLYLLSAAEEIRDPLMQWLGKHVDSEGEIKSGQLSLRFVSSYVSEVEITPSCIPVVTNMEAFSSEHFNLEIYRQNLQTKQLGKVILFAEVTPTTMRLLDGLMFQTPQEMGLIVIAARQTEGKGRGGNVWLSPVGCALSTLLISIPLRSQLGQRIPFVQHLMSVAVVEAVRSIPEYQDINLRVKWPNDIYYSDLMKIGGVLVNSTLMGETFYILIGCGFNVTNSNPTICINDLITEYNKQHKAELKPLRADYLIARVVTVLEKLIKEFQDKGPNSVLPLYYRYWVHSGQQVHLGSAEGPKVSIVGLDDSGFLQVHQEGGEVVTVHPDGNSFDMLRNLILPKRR
The experiment is described as follows: Inhibition of HLCS-catalysed biotinylation of recombinant p67. Format: biochemical. To be noted: data not shown.

Experiment [2] deals with T1, holocarboxylase synthetase (HLCS). The experiment is described as follows: Competition studies with biotin. Format: biochemical. The following applies: for Mechanism of HLCS inhibition: competition studies with biotin; for apparent Vmax with inhibitor: 250 μM inhibitor, biotin varied 0-320 μM, n=4.

On to `COP(=O)(O)CC(=O)CCCC[C@@H]1SC[C@@H]2NC(=O)N[C@@H]21` [compound 3], for which the “HLCS inhibition (negative control, in words)” value in experiment [1] was “did not inhibit HLCS”.

As for `Nc1ncnc2c1ncn2[C@@H]1O[C@H](COP(=O)(O)OCCCCC[C@@H]2SC[C@@H]3NC(=O)N[C@@H]32)[C@@H](O)[C@H]1O` [biotinol-5'-AMP, biotinol-5′-AMP, reference compound], the “Mechanism of HLCS inhibition” value in experiment [2] is listed as “mixed”; in experiment [2] (listed as Biotinol-AMP), “mixed inhibitor”.

Turning to `N.Nc1ncnc2c1ncn2[C@@H]1O[C@H](COP(=O)(O)CC(O)CCCC[C@@H]2SC[C@@H]3NC(=O)N[C@@H]32)[C@@H](O)[C@H]1O` (stereo partly drawn) [β-hydroxyP, biotin β-hydroxyphosphonate-5′-AMP], in experiment [2], the “apparent Vmax with inhibitor” value is listed as 20.6±1.8 pmol biotinylated p67/(nmol HLCS x s) and the “Mechanism of HLCS inhibition” value is recorded as “competitive”. For the same molecule, the “Mechanism of HLCS inhibition” value in experiment [2] (listed as β-HydroxyP) is “competitive inhibitor”.

`N.Nc1ncnc2c1ncn2[C@@H]1O[C@H](COP(=O)(O)CC(=O)CCCC[C@@H]2SC[C@@H]3NC(=O)N[C@@H]32)[C@@H](O)[C@H]1O` [β-ketoP, biotin β-ketophosphonate-5′-AMP]: in experiment [2], the “apparent Vmax with inhibitor” value is 31.5±1.6 pmol biotinylated p67/(nmol HLCS x s) and the “Mechanism of HLCS inhibition” value is listed as “competitive”. In experiment [2] (listed as β-KetoP), the “Mechanism of HLCS inhibition” value is “competitive inhibitor”.
